For one assay, the system named is Calu6. In words: Calu6 proliferation assay. In kind it is cell-based. The following applies: ManN. As for the experimental part:
(§1) Proliferation assays with fibroblasts were done in low-glucose DMEM containing 1% FBS, with or without 10 ng/ml bFGF, or 100 ng/ml human EGF and the assay was ended at day 3. ARPE-19 cells were gently lifted with 0.025% trypsin and plated in RtEGM media (Clonetics) containing 2% FBS, L-glutamine, human bFGF and GA-1000. Once cells were attached to plates, serum-free RtEGM media was used to maintain the cultures. For proliferation assays, 1500 human RPE cells were plated into 96-well plates in low-glucose DMEM containing 1% FBS. A673, U87MG, Calu6 and AML12 cells were grown until confluent and were then harvested and re-suspended in appropriate assay media. For proliferation assays, cells were plated at the density of 1000-2000 cells/well in low-glucose DMEM containing 5% FBS or otherwise stated. Bovine pituitary cells (pituitary folliculostellate cells) were isolated as previously described. For proliferation assays with human epidermal keratinocytes, human DMVECs and human dermal fibroblast cells, 1000 cells/well were plated in low-glucose DMEM containing 1% FBS with or without various growth factors. The assay was ended at day 3 for bovine pituitary cells and at day 4 for all the other cell types. […] Four days later, tumor cell growth was measured by the MTS assay (Promega, Madison, WI), a colorimetric assay that measures metabolic activity of viable cells. […]

A further assay concerns human dermal fibroblasts. In words: Human dermal fibroblast proliferation assay. In kind it is cell-based. The following applies: alone or in combination with growth factors. As for the experimental part: as §1
Assay [1] relates to N-linked glycans from BCECs. The experiment in a line: N-glycan analysis of BCECs. It counts as cell-based, bovine. As for the experimental part: As soon as BCECs reached about 80% confluency, they were washed twice with phosphate buffered saline (PBS, Sigma) and harvested by scraping. The cells were pelleted by centrifugation at 300 g for 3 mins and washed once with cold PBS. Cells were homogenized and total protein was measured. All subsequent analysis was based on known protein amount.
N-linked glycans were removed from glycoprotein samples using PNGase-F kit (New England BioLabs, P0705S). Briefly, 300 μg of protein sample was reconstituted in 180 μl UltraPure water. 20 μl of 10× denaturing buffer was added and boiled using 100° C. water bath for 14 mins. Samples were cooled down to room temperature and centrifuged at 2700 g for 1 min. Subsequently, 50 μl 10×NP-40 was added and samples were kept at room temperature for 30 mins with vortexing at 5 min interval, followed by adding 25 μL of 10× reaction buffer and mixing thoroughly. 5 μl PNGaseF (2500 U) was then added to the samples and mixed gently. Samples were incubated at 37° C. for 16 hrs. Released N-glycans were purified using solid phase extraction method. […] The data was collected using the Dionex ICS-3000 HPLC system with Ultimate 3000 fluorescence detector (Dionex) set at Acx 330 nm at Atm 420 nm with sensitivity 7. […]

The test system of a further assay is bFGFR 1 or β1 integrin. In words: Western blot of protein molecular mass in non-endothelial cells. In kind it is cell-based. The following applies: 400 μM and 2 mM. As for the experimental part: Cells were allowed to reach-80% confluency in 12-well plates. […] At various time points, plates were taken out of the incubator and kept on ice. Cell monolayers were first washed once with ice-cold PBS before lysis with 250 μI of Pierce RIPA buffer (ThermoFisher Scientific, Rockford, IL) or use 50 mM Tris-HCl (pH 7.6), 150 mM NaCl, 10% Glycerol, 1% NP-40 containing protease/Phosphatase inhibitor cocktail (100×) (Cell signaling, #5872). Lysates were collected and mixed with 4× Bolt LDS Sample Buffer (Novex, Carlsbad, CA) in the presence of Halt protease inhibitors and phosphatase inhibitor cocktail (ThermoFisher scientific, #NP0007). The samples were subjected to SDS-PAGE (Bolt 4-12% Bis-Tris Plus, Invitrogen) using Bolt MES SDS running buffer or NuPAGE 3-8% Tris-Acetate gel using Tris-Acetate SDS running buffer (Novex). HUVECs (passage 6-8) were plated in EBM-2 basal medium (Lonza) with 0.2% FBS. Following overnight culture, cells were serum-starved in EBM-2 medium for 4 hrs prior to treatment with 50 ng/ml of VEGF165 or vehicle controls for various lengths. Equal amounts of protein lysates were analyzed by SDS-PAGE and blotted with the indicated antibodies. Proteins were transferred using Tris-Glycine buffer with 20% Methanol (Proteonomics grade) (Apex BioResearch Products). […]

Turning to `N[C@H](C=O)[C@@H](O)[C@H](O)[C@H](O)CO` [ManN, 2-Amino-2-deoxy-D-mannose], the “growth of Calu6” value with Calu6 is listed as “did not promote growth”. Also, the “proliferation of human dermal fibroblasts” value in the assay with human dermal fibroblasts was “no increases in proliferation”. Also, the “Man-5 and Man-7 content” value in assay [1] (40 μM ManN) is on record as “significant early phase accumulation”. The “Man-6, Man-8 and Man-9 in total oligomannose N-glycan content” value in assay [1] (40 μM ManN vs untreated control) was “significant time-dependent reduction”. Further, the “molecular mass change of bFGFR 1 or β1 integrin in non-ECs” value with bFGFR 1 or β1 integrin is listed as “could induce molecular mass change”.

For the origin of these results see patent US20250275993A1, “GLYCOSYLATION INHIBITORS AS THERAPEUTICS FOR STROKE” (The Regents of the University of California, priority 2022, published 2025).
